In one data set the test system is patients. As to conditions: cited from earlier work.
Data set [1] deals with T1, human Y2-R (Homo sapiens, UniProt P49146).
T1 sequence (P49146 1-381): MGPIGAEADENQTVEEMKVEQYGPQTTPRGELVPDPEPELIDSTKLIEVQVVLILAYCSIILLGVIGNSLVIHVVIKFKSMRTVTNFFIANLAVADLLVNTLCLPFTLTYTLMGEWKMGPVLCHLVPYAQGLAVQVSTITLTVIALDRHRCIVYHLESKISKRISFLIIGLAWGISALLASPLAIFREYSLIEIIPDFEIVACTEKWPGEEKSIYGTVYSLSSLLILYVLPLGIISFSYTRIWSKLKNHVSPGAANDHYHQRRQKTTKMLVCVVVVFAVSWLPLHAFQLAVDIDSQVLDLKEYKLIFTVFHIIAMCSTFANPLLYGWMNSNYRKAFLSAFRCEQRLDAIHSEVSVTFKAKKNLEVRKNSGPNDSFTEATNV
The data set is described as follows: Y2-R agonism: counteraction of adenosine-stimulated cAMP (FRET) in HEK293 C24 cells transfected with Y2-R. In kind it is cell-based. As to conditions: HEK293 C24 cells transiently transfected with Y2-R, 20 min pre-treatment; also reported previously [16]; read-out: IC50, inhibition of adenosine-stimulated cAMP production at Y2-R. The method, then:
H188 virally transduced HEK293 cells stably expressing human GLP-1R were obtained from Novo Nordisk A/S for use in FRET assays. HEK293 C24 cells stably expressing the H188 FRET reporter were obtained by G418 selection and grown in monolayers to ∼70% confluency in 100 cm^2 tissue culture dishes and were then transfected with plasmids (11 μg/dish) encoding human GLP-1R, human Y2-R, or human Y1-R. Transfected cells were then incubated for 48 h in fresh culture media. For real-time FRET kinetic assays, cells were harvested, resuspended in 21 mL of SES buffer, and plated at 196 μL per well. Plated cells were pretreated with 4 μL of agonist, or antagonist (Ex9-39 (GLP-1R antagonist) or BIIE0246 (Y2-R antagonist)), at a given target concentration and incubated for 20 min before performing the assay. Y1-R and Y2-R agonism to stimulate Gi proteins and to inhibit adenylyl cyclase was monitored by detecting the ability of PYY peptides, GEP44, or GEP12 to counteract the ability of Adenosine (acting through endogenous A2B receptor and Gs proteins) to increase levels of cAMP. For these assays, increased levels of cAMP were measured as an increase of the 485/535 nm FRET ratio serving as a readout for binding of cAMP to the H188 biosensor that is based on the exchange protein activated by cAMP[15].

Data set [2] has as its target T1, human Y2-R. The experiment in a line: Radioligand competitive binding assay at Y2-R in CHO-K1 cells. As to conditions: 1 pM–1 µM, duplicate independent runs, read-out: half-maximal binding at Y2-R.
The next data set deals with T2, human Y1-R (Homo sapiens, UniProt P25929).
T2 construct: His tag; purchased antibodies-online Inc. ABIN7086253
T2 sequence (P25929 1-384): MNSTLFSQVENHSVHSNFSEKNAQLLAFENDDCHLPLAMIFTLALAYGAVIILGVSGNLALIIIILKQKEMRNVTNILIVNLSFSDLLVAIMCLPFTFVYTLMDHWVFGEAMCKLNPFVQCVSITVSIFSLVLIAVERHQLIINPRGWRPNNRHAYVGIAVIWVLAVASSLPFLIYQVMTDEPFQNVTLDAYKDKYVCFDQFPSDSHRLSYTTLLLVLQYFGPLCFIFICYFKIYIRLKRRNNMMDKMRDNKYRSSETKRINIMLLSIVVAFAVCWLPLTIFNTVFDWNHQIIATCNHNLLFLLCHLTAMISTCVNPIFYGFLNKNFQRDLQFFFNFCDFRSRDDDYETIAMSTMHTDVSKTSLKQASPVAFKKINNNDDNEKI
The data set is described as follows: SPR binding at Y1-R. The conditions noted are these: in-house SPR, 4 pM–19 µM; read-out: half-maximal binding at Y1-R. Background: In SPR one partner is held on a chip, and binding of the other changes the refractive index at the surface.

In data set [3] the target is T3, human GLP-1R (Homo sapiens, UniProt P43220). The data set is described as follows: Agonist-activated internalization of GLP-1R. Type of data set: cell-based. The conditions noted are these: dose–response 30 pM–1 µM, duplicate.
T3 sequence (P43220 24-463): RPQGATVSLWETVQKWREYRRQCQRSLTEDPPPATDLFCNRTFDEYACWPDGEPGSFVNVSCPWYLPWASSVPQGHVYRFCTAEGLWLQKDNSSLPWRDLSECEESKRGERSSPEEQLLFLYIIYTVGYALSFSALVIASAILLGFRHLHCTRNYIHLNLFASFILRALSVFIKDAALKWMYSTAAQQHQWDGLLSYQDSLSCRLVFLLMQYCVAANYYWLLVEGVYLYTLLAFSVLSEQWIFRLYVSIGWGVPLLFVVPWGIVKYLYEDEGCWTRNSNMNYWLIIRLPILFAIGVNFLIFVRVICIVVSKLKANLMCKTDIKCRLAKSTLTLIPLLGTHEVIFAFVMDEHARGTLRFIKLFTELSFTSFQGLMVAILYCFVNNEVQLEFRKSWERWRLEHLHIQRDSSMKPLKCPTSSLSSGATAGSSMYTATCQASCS
Method: Human GLP-1R (Gs-coupled) cell-based agonist-activated internalization assays were performed by Eurofins Discovery.
The target of data set [4] is T3, human GLP-1R. The data set is described as follows: β-arrestin-2 recruitment at GLP-1R. Type of data set: cell-based. As to conditions: dose–response 5.51 pM–551 nM, duplicate. On the technique in general: Activated receptors often draw arrestin, which recruitment assays turn into a signal.
A further data set has as its system DIO Wistar rats. The data set is described as follows: Dose escalation study of food intake and tolerability in diet-induced obese male rats. Type of data set: in vivo, rat. As to conditions: s.c. once daily.
Data set [5] concerns lean and diet-induced obese (DIO) rats. Details: method as in PMID 33449689. As to conditions: rat, in vivo; cited from earlier work.
In data set [6] the target is T3, human GLP-1R. The data set is described as follows: cAMP FRET agonism at GLP-1R in H188-GLP-1R transduced HEK293 cells. Type of data set: cell-based. As to conditions: FRET ratio tracking cAMP, Fig. 1A.
Method: H188 virally transduced HEK293 cells stably expressing human GLP-1R were obtained from Novo Nordisk A/S for use in FRET assays. HEK293 C24 cells stably expressing the H188 FRET reporter were obtained by G418 selection and grown in monolayers to ∼70% confluency in 100 cm^2 tissue culture dishes and were then transfected with plasmids (11 μg/dish) encoding human GLP-1R, human Y2-R, or human Y1-R. Transfected cells were then incubated for 48 h in fresh culture media. For real-time FRET kinetic assays, cells were harvested, resuspended in 21 mL of SES buffer, and plated at 196 μL per well. […] Y1-R and Y2-R agonism to stimulate Gi proteins and to inhibit adenylyl cyclase was monitored by detecting the ability of PYY peptides, GEP44, or GEP12 to counteract the ability of Adenosine (acting through endogenous A2B receptor and Gs proteins) to increase levels of cAMP. For these assays, increased levels of cAMP were measured as an increase of the 485/535 nm FRET ratio serving as a readout for binding of cAMP to the H188 biosensor that is based on the exchange protein activated by cAMP[15].
Data set [7] deals with T3, human GLP-1R. The experiment in a line: SPR binding to His-tagged GLP-1R on NTA sensor. As to conditions: in-house SPR, 0.1–100 nM, duplicate.

Square brackets hold non-standard residues; d marks the D form. Ends that are not written are not given here.

Method for DIO Wistar rats: Wistar rats purchased from Charles River Laboratories (Wilmington, MA) were used in this study. The rats were provided with ad libitum access to food and water and were kept on a 12 h light/12 h dark cycle. For all other experiments, male rats (51–75 g; approximately 4 weeks of age) were fed a diet with 60% of the calories provided by fat (D12492; Research Diets, Inc; New Brunswick, NJ; 5.21 kcal/g) for approximately five months before the start of the study generate diet-induced obesity (DIO). Animals were individually housed in a temperature (22 ± 1 °C) and humidity-controlled (57 ± 4%) room. All body weight measurements were taken just before the start of the dark cycle.
GEP44 stock solutions were prepared using sterile ultra-pure H2O and gently agitated at 4 °C for > 24 h and then aliquoted and stored at − 20 °C. […] GEP12 (aliquots up to 5 mg) was dissolved in 100 µL DMSO and mixed at 1000 rpm for three min to create a stock solution. Stock solutions were diluted to working solutions in 0.9% normal saline, resulting in a final DMSO concentration of < 2%. […]
Rats were singly housed in BioDAQ cages and allowed to acclimate for at least 10 days before the start of this study. […] Body weight was assessed daily just before the start of the dark cycle. Food and water were available ad libitum and consumption was monitored continuously.
Method for human Y1-R: Peptides were precipitated with cold (4 °C) diethyl ether and purified on an Agilent 1200 series High-Performance Liquid Chromatography (HPLC) instrument (10–75% HPLC-grade acetonitrile for 20 min at a 2 mL/min flow rate over an Agilent Zorbax C18 column (5 µm, 9.4 × 250 mm) tracked at 220, 254, and 280 nm. Peptides were purified to > 95%. Peptide binding was assayed by EuroscreenFast (Gosselies, Belgium) or in-house with a Nicoya Open Surface Plasmon Resonance (SPR) instrument. Internalization and β-arrestin recruitment assays were performed by Eurofins Discovery (Fremont, CA, USA).
Peptide binding to human Y1-R was performed in-house by SPR.

As to tirzepatide, in the data set on patients (10 or 15 mg per week), the “patients achieving a weight loss of 20% and more” value was “at least 50%”. Further, in the data set on patients (human, in vivo), the “diarrhea, incidence” value is 15–17%; the “discontinuation of treatment due to gastrointestinal symptoms” value is reported as 3–7%; the “nausea, incidence” value is on record as 12–24%; the “vomiting, incidence” value is recorded as 6–10%.

What is called EC50 is the concentration that produces a half-maximal response. “H[dS]QGTFTSDLSKYLEEEAVREFIAWLKNGGPSRHYLNLVTRQRY-NH2 [GEP44]”: the IC50 was found to be 34 nM on human Y2-R [1], 65.8 nM on human Y2-R [2] and 86.6 nM at human Y1-R. The EC50 at human GLP-1R [3] turned out to be 3.97 nM; on human GLP-1R [4] it was 1.59 nM. Moreover, the “no observed adverse effect level (NOAEL)” value with DIO Wistar rats was determined as 20 nmol/kg/day. In data set [5], the visceral malaise entry is “no visceral malaise”.

Take “F[dS]QGTFTSDLSKYLEEEAVREFIAWLKNGGPSRHYLNLVTRQRY-NH2 [GEP12]”: at human GLP-1R [6], the concentration giving a half-maximal response (EC50) stood at 17.3 nM. Moreover, the IC50 at human GLP-1R [7] came to 19.2 nM.

The record behind these values is paper PMC10261008, “A peptide triple agonist of GLP-1, neuropeptide Y1, and neuropeptide Y2 receptors promotes glycemic control and weight loss” (Scientific Reports, 2023).
